Target: T1, hCB1 (Homo sapiens, UniProt P21554)
T1 construct: expressed in transfected cells
Test: [35S]-GTPγS binding assay on membranes from cells stably transfected with the CB1 gene, inhibition of agonist CP55940
Type: biochemical
Conditions: EC80 concentration of agonist CP55940, membranes of CB1-transfected cells
From the text: Compounds of the present invention are active against the receptor product of the CB1 gene. The compounds of the present invention are active at the CB1 receptor (IC50<1 micromolar). Most preferred compounds have IC50<200 nanomolar. The affinity of the compounds of the invention for central cannabinoid receptors is demonstrable in methods described in Devane et al., Molecular Pharmacology, 1988, 34,605 or those described in WO01/70700 or EP 656354. Alternatively the assay may be performed as follows.
10 μg of membranes prepared from cells stably transfected with the CB1 gene were suspended in […] of 100 mM NaCl, 5 mM MgCl2, 1 mM EDTA, 50 mM HEPES (pH 7.4), 1 mM DTT, 0.1% BSA and 100 μM GDP. To this was added an EC80 concentration of agonist (CP55940), the required concentration of test compound and 0.1 μCi [^35S]-GTPγS. […] Filters were then covered with scintilant and counted for the amount of [^35S]-GTPγS retained by the filter.
Activity is measured in the absence of all ligands (minimum activity) or in the presence of an EC80 concentration of CP55940 (maximum activity). […] At various concentrations of novel ligand, activity is calculated as a percentage of the maximum activity and plotted. The data are fitted using the equation y=A+((B−A)/1+((C/x)UD)) and the IC50 value determined as the concentration required to give half maximal inhibition of GTPγS binding under the conditions used.

T1 sequence (P21554 whole entry): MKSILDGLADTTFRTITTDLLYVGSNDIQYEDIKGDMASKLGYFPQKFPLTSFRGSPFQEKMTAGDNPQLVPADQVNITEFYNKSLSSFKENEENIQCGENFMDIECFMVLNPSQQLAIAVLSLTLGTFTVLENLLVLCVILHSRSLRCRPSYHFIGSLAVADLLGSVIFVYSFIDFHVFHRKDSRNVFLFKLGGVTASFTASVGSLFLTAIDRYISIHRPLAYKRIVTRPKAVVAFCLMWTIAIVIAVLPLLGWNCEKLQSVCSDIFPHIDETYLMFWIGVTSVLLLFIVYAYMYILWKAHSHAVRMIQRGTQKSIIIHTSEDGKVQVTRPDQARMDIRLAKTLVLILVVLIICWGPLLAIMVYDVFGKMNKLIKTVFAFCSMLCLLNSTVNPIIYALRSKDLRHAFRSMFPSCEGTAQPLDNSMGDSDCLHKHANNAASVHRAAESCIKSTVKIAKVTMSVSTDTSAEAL

CC1COC(c2nc(-c3ccc(Cl)cc3)c(-c3ccc(Cl)cc3)nc2C(=O)OC(C)(C)C)=N1 (stereo not shown) [Example 5, 5,6-bis(4-chlorophenyl)-3-(4-methyl-4,5-dihydrooxazol-2-yl)-pyrazine-2-carboxylic acid tert-butylester]
IC50: 1.8 nM
